Earlier results, collected in US20250066696A1, “A STABLE BLEACH COMPOSITION” (Conopco Inc., d/b/a UNILEVER, priority 2021, published 2025).

For `CCCCC(C)CCC(=O)O` (stereo not shown) [4-methyl octanoic acid], the pKa is given as 5.23.
